pEC50, pIC50: −log10 of the molar value. Values belong to the molecule of their own block, whether it stands above or below them. Calls of active or inactive are those of the source.
Experiments:
Type in all cases: cell-based
[1] = biological target: Voltage-dependent T-type calcium channel subunit alpha-1G (Homo sapiens, UniProt O43497); assay: Agonist activity at Cav3.1 (unknown origin) expressed in HEK293T cells assessed as increase in current amplitude at holding potential of -100 mV by whole cell patch-clamp electrophysiological method
[2] = species on record: Mus musculus; assay: Agonist activity at mouse Cav3.1 R1715H mutant expressed in HEK293T cells assessed as shift in voltage dependence of activation at 10 uM at holding potential of -100 mV by whole cell electrophysiological method
[3] = species on record: Mus musculus; assay: Agonist activity at mouse Cav3.1 R1715H mutant expressed in HEK293T cells assessed as change in half-maximal activation potential at 10 uM at holding potential of -100 mV by whole cell electrophysiological method (reference value: -38 +/- 4.3 mV)
[4] = biological target: T-type calcium channel alpha 1G subunit (Mus musculus) (UniProt Q27YN9); assay: Agonist activity at mouse Cav3.1 expressed in HEK293T cells assessed as half-maximal activation potential at 5 uM at holding potential of -100 mV by whole cell electrophysiological method (reference value: -44 +/- 2.8 mV)
[5] = biological target: T-type calcium channel alpha 1G subunit (Mus musculus) (UniProt Q27YN9); assay: Agonist activity at mouse Cav3.1 expressed in HEK293T cells assessed as change in slope factor at 5 uM at holding potential of -100 mV by whole cell electrophysiological method
[6] = species on record: Mus musculus; assay: Agonist activity at mouse Cav3.1 R1715H mutant expressed in HEK293T cells assessed as normalized window current at 10 uM at holding potential of -100 mV by whole cell electrophysiological method
[7] = biological target: T-type calcium channel alpha 1G subunit (Mus musculus) (UniProt Q27YN9); assay: Agonist activity at mouse Cav3.1 expressed in HEK293T cells assessed as increase in current amplitude at 5 uM at holding potential of -100 mV measured after 12 to 14 secs by whole cell electrophysiological method
[8] = biological target: T-type calcium channel alpha 1G subunit (Mus musculus) (UniProt Q27YN9); assay: Agonist activity at mouse Cav3.1 expressed in HEK293T cells assessed as increase in current amplitude at 3 to 30 uM at holding potential of -100 mV incubated prior to compound washout by whole cell electrophysiological method
[9] = biological target: T-type calcium channel alpha 1G subunit (Mus musculus) (UniProt Q27YN9); assay: Agonist activity at mouse Cav3.1 expressed in HEK293T cells assessed as increase in current amplitude at 300 uM at holding potential of -100 mV measured up to 150 millisecs in presence of LVGCC blocker Ni2+ by whole cell electrophysiological method
[10] = biological target: T1, T-type calcium channel alpha 1G subunit (Mus musculus, UniProt Q27YN9); assay: Agonist activity at mouse Cav3.1 expressed in HEK293T cells assessed as increase in current amplitude at holding potential of -100 mV by whole cell electrophysiological method
[11] = species on record: Mus musculus; assay: Antagonist activity at mouse Cav3.1 R1715H mutant expressed in HEK293T cells assessed as change in time constant of inactivation at 10 uM at holding potential of -100 mV by whole cell electrophysiological method
[12] = species on record: Mus musculus; assay: Agonist activity at mouse Cav3.1 R1715H mutant expressed in HEK293T cells assessed as change in time constant of activation at 10 uM at holding potential of -100 mV by whole cell electrophysiological method
[13] = species on record: Mus musculus; assay: Antagonist activity at mouse Cav3.1 R1715H mutant expressed in HEK293T cells assessed as depolarization of action potential at 10 uM at holding potential of -100 mV by whole cell electrophysiological method
[14] = species on record: Mus musculus; assay: Agonist activity at mouse Cav3.1 R1715H mutant expressed in HEK293T cells assessed as change in slope factor at 10 uM at holding potential of -100 mV by whole cell electrophysiological method
[15] = Agonist activity at mouse Cav3.1 R1715H mutant expressed in HEK293T cells assessed as increase in current amplitude at holding potential of -100 mV by whole cell electrophysiological method; settings: HEK-293T
[16] = biological target: T-type calcium channel alpha 1G subunit (Mus musculus) (UniProt Q27YN9); assay: Agonist activity at mouse Cav3.1 expressed in HEK293T cells assessed as increase in window current at 5 uM at holding potential of -100 mV by whole cell electrophysiological method
[17] = biological target: T-type calcium channel alpha 1G subunit (Mus musculus) (UniProt Q27YN9); assay: Agonist activity at mouse Cav3.1 expressed in HEK293T cells assessed as change in time constant of activation at 5 uM at holding potential of -100 mV by whole cell electrophysiological method
[18] = biological target: T-type calcium channel alpha 1G subunit (Mus musculus) (UniProt Q27YN9); assay: Antagonist activity at mouse Cav3.1 expressed in HEK293T cells assessed as change in time constant of inactivation at 5 uM at holding potential of -100 mV by whole cell electrophysiological method
[19] = biological target: T-type calcium channel alpha 1G subunit (Mus musculus) (UniProt Q27YN9); assay: Antagonist activity at mouse Cav3.1 expressed in HEK293T cells assessed as increase in half-maximal activation potential at 5 uM at holding potential of -100 mV incubated prior to compound washout by whole cell electrophysiological method
[20] = biological target: T-type calcium channel alpha 1G subunit (Mus musculus) (UniProt Q27YN9); assay: Agonist activity at mouse Cav3.1 expressed in HEK293T cells assessed as decrease in half-maximal activation potential at 5 uM at holding potential of -100 mV incubated prior to compound washout by whole cell electrophysiological method
[21] = biological target: T-type calcium channel alpha 1G subunit (Mus musculus) (UniProt Q27YN9); assay: Antagonist activity at mouse Cav3.1 expressed in HEK293T cells assessed as half-maximal inactivation potential at 5 uM at holding potential of -100 mV by whole cell electrophysiological method (reference value: -70.8 +/- 3 mV)
[22] = biological target: T-type calcium channel alpha 1G subunit (Mus musculus) (UniProt Q27YN9); assay: Antagonist activity at mouse Cav3.1 expressed in HEK293T cells assessed as change in slope factor at 5 uM at holding potential of -100 mV by whole cell electrophysiological method
[23] = species on record: Mus musculus; assay: Agonist activity at mouse Cav3.1 R1715H mutant expressed in HEK293T cells assessed as increase in 200 ms ramp from -100 to -40 mV after 100 ms hyperpolarization of -100 mV evoked peak of low threshold Ca2+ spike at 10 uM at -60 mV holding potential by whole cell electrophysiological method relative to control
[24] = biological target: T-type calcium channel alpha 1G subunit (Mus musculus) (UniProt Q27YN9); assay: Agonist activity at mouse Cav3.1 expressed in HEK293T cells assessed as increase in current amplitude at 5 uM at holding potential of -100 mV in presence of hypatone-B by whole cell electrophysiological method
[25] = biological target: T-type calcium channel alpha 1G subunit (Mus musculus) (UniProt Q27YN9); assay: (§1) Antagonist activity at mouse Cav3.1 expressed in HEK293T cells assessed as inhibition of current amplitude at holding potential of -100 mV by whole cell electrophysiological method
[26] = biological target: T1, T-type calcium channel alpha 1G subunit; assay: as §1
[27] = biological target: T-type calcium channel alpha 1G subunit (Mus musculus) (UniProt Q27YN9); assay: Antagonist activity at mouse Cav3.1 expressed in HEK293T cells assessed as inhibition of current amplitude at 10 uM at holding potential of -100 mV incubated prior to compound washout by whole cell electrophysiological method
[28] = biological target: T-type calcium channel alpha 1G subunit (Mus musculus) (UniProt Q27YN9); assay: Antagonist activity at mouse Cav3.1 expressed in HEK293T cells assessed as inhibition of current amplitude at 2 uM at holding potential of -100 mV in presence of hypatone-A by whole cell electrophysiological method

T1 sequence (Q27YN9 whole entry): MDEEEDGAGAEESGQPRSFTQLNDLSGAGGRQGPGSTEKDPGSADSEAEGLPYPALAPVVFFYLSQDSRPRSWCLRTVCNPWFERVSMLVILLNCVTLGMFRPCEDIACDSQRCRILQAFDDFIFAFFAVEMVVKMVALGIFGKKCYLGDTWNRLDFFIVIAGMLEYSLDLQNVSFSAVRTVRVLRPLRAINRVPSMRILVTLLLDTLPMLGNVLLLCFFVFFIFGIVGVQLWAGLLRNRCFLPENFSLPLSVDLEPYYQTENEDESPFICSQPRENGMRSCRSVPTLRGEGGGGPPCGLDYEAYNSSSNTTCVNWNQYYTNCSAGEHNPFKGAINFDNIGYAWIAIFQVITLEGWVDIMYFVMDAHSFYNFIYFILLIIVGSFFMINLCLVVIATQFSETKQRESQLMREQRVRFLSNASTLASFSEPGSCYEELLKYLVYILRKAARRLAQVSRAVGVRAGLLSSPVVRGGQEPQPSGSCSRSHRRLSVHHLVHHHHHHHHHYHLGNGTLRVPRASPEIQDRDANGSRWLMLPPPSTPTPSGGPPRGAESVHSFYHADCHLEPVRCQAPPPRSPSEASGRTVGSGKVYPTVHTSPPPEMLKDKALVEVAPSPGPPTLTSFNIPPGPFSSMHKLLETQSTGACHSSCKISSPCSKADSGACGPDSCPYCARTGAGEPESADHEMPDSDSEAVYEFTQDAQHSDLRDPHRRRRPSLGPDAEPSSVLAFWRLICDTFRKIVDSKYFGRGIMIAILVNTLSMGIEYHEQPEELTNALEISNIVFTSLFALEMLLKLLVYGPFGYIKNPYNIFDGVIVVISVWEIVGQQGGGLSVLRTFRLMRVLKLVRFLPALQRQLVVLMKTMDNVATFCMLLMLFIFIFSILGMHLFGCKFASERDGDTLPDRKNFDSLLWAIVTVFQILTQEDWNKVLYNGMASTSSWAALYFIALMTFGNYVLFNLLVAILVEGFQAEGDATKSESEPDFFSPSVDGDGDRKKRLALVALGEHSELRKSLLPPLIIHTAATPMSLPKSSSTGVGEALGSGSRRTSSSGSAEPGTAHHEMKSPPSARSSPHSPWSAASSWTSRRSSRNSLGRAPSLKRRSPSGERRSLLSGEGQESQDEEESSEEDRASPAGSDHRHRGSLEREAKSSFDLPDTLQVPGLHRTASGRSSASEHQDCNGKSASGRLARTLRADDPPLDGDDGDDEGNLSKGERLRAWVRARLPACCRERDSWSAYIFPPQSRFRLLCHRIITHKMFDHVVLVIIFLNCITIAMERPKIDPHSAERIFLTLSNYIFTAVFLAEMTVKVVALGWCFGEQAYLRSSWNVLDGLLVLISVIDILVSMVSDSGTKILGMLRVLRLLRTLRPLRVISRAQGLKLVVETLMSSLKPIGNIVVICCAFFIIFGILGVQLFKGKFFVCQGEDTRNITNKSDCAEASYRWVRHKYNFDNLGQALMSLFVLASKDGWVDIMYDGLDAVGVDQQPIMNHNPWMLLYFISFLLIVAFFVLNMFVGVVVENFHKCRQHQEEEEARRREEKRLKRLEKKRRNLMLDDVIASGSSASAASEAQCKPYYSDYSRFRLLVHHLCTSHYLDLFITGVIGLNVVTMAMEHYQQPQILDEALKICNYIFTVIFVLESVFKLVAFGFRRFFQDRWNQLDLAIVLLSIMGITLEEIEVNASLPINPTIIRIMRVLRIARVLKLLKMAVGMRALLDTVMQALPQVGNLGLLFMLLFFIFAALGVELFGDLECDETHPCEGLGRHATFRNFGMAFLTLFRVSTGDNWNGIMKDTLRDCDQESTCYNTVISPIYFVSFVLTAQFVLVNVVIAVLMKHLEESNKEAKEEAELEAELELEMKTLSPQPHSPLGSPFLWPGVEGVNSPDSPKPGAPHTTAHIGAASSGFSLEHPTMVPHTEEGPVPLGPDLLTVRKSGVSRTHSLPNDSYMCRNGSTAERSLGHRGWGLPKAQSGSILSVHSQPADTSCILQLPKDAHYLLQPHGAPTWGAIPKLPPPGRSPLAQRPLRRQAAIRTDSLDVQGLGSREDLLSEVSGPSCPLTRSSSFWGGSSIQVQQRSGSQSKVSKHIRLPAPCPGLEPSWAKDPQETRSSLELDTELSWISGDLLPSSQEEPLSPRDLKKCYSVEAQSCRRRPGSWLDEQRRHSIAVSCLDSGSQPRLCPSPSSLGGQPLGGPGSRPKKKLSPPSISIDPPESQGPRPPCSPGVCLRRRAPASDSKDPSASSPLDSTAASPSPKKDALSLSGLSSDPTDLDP
Sequence of T-type calcium channel alpha 1G subunit (Mus musculus) (Q27YN9 as listed by the source): as the sequence (Q27YN9 whole entry) above
Sequence of Voltage-dependent T-type calcium channel subunit alpha-1G (O43497 whole entry): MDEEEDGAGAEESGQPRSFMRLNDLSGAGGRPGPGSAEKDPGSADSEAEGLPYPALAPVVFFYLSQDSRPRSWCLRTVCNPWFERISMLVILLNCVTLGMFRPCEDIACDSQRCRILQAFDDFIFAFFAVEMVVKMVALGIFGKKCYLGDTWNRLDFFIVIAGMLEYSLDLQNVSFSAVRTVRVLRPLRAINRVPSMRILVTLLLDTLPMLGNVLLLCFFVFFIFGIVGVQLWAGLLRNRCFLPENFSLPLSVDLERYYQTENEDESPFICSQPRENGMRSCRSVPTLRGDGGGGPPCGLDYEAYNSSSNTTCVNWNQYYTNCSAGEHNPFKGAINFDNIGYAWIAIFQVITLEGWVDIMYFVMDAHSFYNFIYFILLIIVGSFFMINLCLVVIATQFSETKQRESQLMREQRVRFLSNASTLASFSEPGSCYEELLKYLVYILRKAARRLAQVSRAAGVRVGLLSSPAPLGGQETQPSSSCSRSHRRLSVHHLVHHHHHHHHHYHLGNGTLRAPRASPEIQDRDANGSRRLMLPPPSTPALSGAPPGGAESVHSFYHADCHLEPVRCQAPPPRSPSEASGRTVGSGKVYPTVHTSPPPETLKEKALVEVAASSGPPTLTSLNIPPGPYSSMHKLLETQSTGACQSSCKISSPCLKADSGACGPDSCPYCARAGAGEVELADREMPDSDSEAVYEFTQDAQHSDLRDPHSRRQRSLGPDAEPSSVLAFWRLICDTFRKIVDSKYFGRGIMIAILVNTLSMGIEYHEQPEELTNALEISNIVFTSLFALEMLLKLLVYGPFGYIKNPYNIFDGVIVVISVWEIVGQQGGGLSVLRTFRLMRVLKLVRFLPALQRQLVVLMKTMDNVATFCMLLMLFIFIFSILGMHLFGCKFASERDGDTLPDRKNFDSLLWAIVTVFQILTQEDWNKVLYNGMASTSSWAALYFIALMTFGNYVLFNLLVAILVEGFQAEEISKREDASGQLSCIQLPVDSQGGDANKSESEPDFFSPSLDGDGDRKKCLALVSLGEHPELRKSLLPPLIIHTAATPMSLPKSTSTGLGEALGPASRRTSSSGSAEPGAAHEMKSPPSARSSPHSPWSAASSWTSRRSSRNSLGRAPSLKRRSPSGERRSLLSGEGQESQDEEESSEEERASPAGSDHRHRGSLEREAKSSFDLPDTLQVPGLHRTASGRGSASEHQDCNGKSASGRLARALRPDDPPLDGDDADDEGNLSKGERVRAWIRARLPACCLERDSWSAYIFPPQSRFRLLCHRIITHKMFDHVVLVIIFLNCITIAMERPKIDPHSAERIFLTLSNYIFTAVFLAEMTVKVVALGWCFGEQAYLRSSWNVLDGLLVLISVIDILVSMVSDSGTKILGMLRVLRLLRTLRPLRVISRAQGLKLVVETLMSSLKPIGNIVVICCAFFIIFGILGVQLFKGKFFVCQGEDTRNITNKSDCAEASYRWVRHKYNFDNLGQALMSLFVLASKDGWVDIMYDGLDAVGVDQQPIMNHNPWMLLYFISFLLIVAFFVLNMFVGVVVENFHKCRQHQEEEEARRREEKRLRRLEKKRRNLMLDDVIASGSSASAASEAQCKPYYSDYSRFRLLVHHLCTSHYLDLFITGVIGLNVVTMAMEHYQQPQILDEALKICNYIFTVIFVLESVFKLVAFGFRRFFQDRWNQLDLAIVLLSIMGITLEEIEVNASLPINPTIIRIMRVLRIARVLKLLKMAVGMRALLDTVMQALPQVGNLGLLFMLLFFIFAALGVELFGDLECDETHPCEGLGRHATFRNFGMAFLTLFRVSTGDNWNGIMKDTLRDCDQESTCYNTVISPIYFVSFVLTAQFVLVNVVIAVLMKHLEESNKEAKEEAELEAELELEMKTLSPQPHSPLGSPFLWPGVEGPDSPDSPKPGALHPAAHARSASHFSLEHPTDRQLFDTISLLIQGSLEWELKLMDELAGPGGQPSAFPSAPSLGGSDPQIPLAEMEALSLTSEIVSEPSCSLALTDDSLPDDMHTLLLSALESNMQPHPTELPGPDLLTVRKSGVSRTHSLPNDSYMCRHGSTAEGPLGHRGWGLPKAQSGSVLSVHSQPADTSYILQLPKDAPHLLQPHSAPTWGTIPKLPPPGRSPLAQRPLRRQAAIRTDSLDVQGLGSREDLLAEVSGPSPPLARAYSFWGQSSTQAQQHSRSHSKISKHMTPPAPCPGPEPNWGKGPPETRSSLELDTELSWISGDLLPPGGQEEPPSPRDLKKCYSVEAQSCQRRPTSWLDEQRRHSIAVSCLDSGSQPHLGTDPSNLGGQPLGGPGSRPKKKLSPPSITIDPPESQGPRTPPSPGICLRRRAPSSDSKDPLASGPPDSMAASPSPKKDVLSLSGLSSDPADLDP

SMILES: CC(C)C1=C/C(=C2\C(=O)C=C3C(C)(C)CCC[C@@]32C)OC1=O
- pEC50 [1]: 4.90

SMILES: C=C(C)[C@H]1CC[C@@](C)(O)[C@@H](C2=C(O)C(CC=C(C)C)(CC=C(C)C)C(=O)C(C(=O)c3ccccc3)=C2O)C1
- inhibition [25]: Dose-dependent effect
- pIC50 [26]: 5.64
- inhibition [27]: Active
- inhibition [28]: Active

Further lines, with some results ahead:

- V1/2 [4]: -47.6 mV
- Activity [5]: inactive
- Activity [7]: Active
- Activity [8]: inactive
- Activity [9]: inactive
- pEC50 [10]: 5.42
- pEC50 [15]: 5.02
- Activity [16]: Active
- Activity [17]: inactive
- Activity [18]: inactive
- Activity [19]: inactive
- Activity [20]: inactive
- V1/2 [21]: -66.5 mV
- Activity [22]: inactive
- Activity [24]: Active
SMILES: CC(C)=CCC1(CC=C(C)C)C(=O)C(C(=O)c2ccccc2)=C2O[C@]3(C)CC[C@H]4C[C@@H]3[C@]2(C1=O)C4(C)C
- Activity [2]: inactive
- V1/2 [3]: -43.8 mV
- Activity [6]: Active
- Activity [11]: inactive
- Activity [12]: inactive
- Activity [13]: inactive
- Activity [14]: inactive
- Activity [23]: 26.7%

- inhibition [25]: Dose-dependent effect
- pIC50 [26]: 5.46
- inhibition [27]: Active
SMILES: C=C(C)[C@H]1CC[C@@](C)(O)[C@@H](C2=C(O)C(CC=C(C)C)(CC=C(C)C)C(=O)C(C(=O)C(C)C)=C2O)C1

- inhibition [25]: Dose-dependent effect
- pIC50 [26]: 6.72
- inhibition [27]: Active
SMILES: C=C(C)[C@H]1CC[C@@](C)(O)[C@@H](C2=C(O)C(CC=C(C)C)(CC=C(C)C)C(=O)C(C(=O)C(C)CC)=C2O)C1 (some centres undefined)

Reference: ChEMBL document CHEMBL4354847, “Congenetic Hybrids Derived from Dearomatized Isoprenylated Acylphloroglucinol with Opposite Effects on Cav3.1 Low Voltage-Gated Ca2+ Channel” (J Med Chem, 2020)
